The values that follow come from patent publication US5530141A, “2,4-diaryl-1,3-dithiolanes; 2,4-diaryl-1,3-dioxolanes; 2,4-diaryl-1,3-oxathiolanes; and 2,5-diaryl-1,3-oxathiolanes for the treatment of disorders mediated by platelet activating factor or products of 5-lipoxygenase” (Center for Innovative Technology, priority 1992, dated 1996).

One data set deals with T1, RBL 5-LO (Rattus norvegicus, UniProt P12527).
T1 construct: cytosol 5-lipoxygenase of rat basophilic leukemia cells (RBL); endogenous in cells; host or cells: rat basophilic leukemia (RBL) cells
T1 sequence (P12527 1-673): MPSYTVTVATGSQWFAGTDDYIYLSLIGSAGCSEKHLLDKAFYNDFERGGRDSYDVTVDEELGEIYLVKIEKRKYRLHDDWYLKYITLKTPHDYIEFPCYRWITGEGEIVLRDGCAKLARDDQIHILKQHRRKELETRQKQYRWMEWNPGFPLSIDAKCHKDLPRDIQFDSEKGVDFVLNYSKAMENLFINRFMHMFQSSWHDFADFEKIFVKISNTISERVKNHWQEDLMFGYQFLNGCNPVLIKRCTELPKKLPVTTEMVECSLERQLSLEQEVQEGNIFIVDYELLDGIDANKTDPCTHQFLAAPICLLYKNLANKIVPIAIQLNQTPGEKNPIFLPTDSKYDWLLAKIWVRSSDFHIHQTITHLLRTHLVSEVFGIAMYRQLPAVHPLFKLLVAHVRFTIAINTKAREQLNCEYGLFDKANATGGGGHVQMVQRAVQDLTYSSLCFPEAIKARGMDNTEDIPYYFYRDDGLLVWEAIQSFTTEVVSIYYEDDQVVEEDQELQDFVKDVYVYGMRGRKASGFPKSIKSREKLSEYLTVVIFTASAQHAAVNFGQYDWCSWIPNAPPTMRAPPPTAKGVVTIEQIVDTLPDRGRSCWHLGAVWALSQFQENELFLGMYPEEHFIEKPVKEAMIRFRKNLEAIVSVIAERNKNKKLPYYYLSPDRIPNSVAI
Description: RBL 5-LO inhibition (Table 2). In kind it is biochemical. The settings on record: unit inferred. The source says: A wide variety of biological assays have also been used to evaluate the ability of a compound to inhibit the enzyme 5-lipoxygenase. For example, a cytosol 5-lipoxygenase of rat basophilic leukemia cells (RBL) has been widely utilized in studies on leukotriene biosynthesis. Compounds that inhibit 5-lipoxygenase decrease the levels of leukotrienes.

The conditions of data set [1]: cited from earlier work.
A further data set concerns PAF receptor sites. To be noted: cited from earlier work.
A further data set deals with 5-lipoxygenase. To be noted: cited from earlier work.
Data set [2] deals with PAF-induced rat cutaneous vascular permeability. To be noted: cited from earlier work.
A further data set relates to PAF receptor. To be noted: cited from earlier work.
Data set [3] deals with T2, specific receptors on human platelet membranes (PAF receptors) (Homo sapiens, UniProt P25105).
T2 construct: Human platelet membranes were prepared from platelet concentrates obtained from the American Red Cross Blood Services; from tissue; host or cells: human platelets (concentrates from American Red Cross Blood Services, Dedham, Mass.), membrane fractions A and B
Description: [3H]PAF binding inhibition on human platelet membranes (Table 1, PAF). The settings on record: [3H]PAF 0.3 nM, pH 7.0, 4 h, 0° C. As to the method:
Human platelet membranes were prepared from platelet concentrates obtained from the American Red Cross Blood Services (Dedham, Mass.). After several washes with platelet wash solution (150 mM NaCl, 10 mM Tris, and 2 mM EDTA, pH 7.5), the platelet pellets were resuspended in 5 mM MgCl2, 10 mM Tris, and 2 mM EDTA at pH 7.0. The cells were then quickly frozen with liquid nitrogen and thawed slowly at room temperature. The freezing and thawing procedure was repeated at least three times. For further fractionation of membrane fragments, the lysed membrane suspension was layered over the top of a discontinous sucrose density gradient of 0.25, 1.03, and 1.5M sucrose prepared in 10 mM MgCl2, 10 mM Tris and 2 mM EDTA, pH 7.0, and centrifuged at 63,500×g for 2 hr. The membrane fractions banding between 0.25 and 1.03M (membrane A) and between 1.03 and 1.5M (membrane B) were collected separately. The protein concentration of the membrane preparations was determined by Lowry's method with bovine serum albumin (BSA) as the standard. The membranes were then separated into smaller fractions (4 ml each) and stored at -80° C. and thawed before use.
b) [^3 H]PAF Binding inhibition:
The ability of [^3 H]PAF to bind to specific receptors on human platelet membranes was evaluated at optimal conditions at pH 7.0 and in the presence of 10 mM MgCl2. Membrane protein (100 ug) was added to a final 0.5 ml solution containing 0.15 pmol (0.3 nM concentration) of [^3 H]PAF and a known amount of unlabeled PAF or PAF receptor antagonist in 10 mM MgCl2, 10 mM Tris and 0.25% BSA at pH 7.0. After incubation for four hours at 0° C., the bound and unbound [^3 H]PAF were then separated through a Whatman GF/C glass fiber filter under vacuum. No degradation of filter bound [^3 H]PAF has been detected under this assay condition. The nonspecific binding was defined as the total binding in the presence of excess unlabeled PAF (1 mM) where no further displacement was found with higher concentrations of either unlabeled PAF or PAF analogs or PAF receptor antagonists. The specific binding was defined as the difference between total binding and nonspecific binding.
To determine the relative potency of tested compounds, [^3 H]PAF binding in the presence of inhibitors was normalized in terms of percent inhibition by assigning the total binding in the absence of inhibitors as 0% inhibition and the total binding in the presence of 1 mM unlabeled PAF as 100%. The percent inhibition by the compound can be calculated by the formula expressed below:
% inhibition=[(Total binding-total binding in the presence of
compound)/nonspecific binding]×100%
The IC50 was calculated as the concentration of the inhibitor necessary to obtain 50% inhibition of the specific [^3 H]PAF binding and was calculated by a nonlinear regression computer software program, GraphPad Inplot, version 3.0 (GraphPad software, San Diego, Calif.). Table 1 provides the IC50 values for a number of 2,4-diaryl-1,3-dithiolanes.

A further data set addresses T3, 5-LO (Rattus norvegicus, UniProt P12527).
T3 sequence (P12527 1-673): T1 sequence (P12527 1-673)
The data set can be described thus: 5-LO inhibition (Table 1). In kind it is biochemical.

T2 sequence (P25105 whole entry): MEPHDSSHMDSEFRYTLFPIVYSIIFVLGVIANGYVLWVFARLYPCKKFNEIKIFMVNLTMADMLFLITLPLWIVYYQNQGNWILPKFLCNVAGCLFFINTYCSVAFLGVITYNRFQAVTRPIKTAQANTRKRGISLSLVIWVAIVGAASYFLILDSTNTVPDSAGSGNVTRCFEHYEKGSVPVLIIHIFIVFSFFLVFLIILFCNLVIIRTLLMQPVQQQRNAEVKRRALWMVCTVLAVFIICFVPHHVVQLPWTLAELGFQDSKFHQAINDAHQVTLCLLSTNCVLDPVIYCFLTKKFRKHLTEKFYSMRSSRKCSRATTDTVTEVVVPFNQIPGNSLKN

With `COc1cc(C2SCC(c3cc(OC)c(OC)c(OC)c3)S2)cc(CN(O)C(N)=O)c1OC` (stereo not shown), the IC50 on RBL 5-LO amounted to 1440 nM. That is a single-digit micromolar value.

`COc1cc(C2SCC(c3cc(OC)c(OC)c(OC)c3)S2)cc(CN(O)C(C)=O)c1OC` (stereo not shown) had an IC50 on RBL 5-LO of 850 nM. For the compound “1-O-alkyl-2-acetyl-sn-glycerol-3-phosphorylcholine [PAF]”, the plasma half life in data set [1] is 2 to 4 min. In the case of `C=CCOc1c(NC(=O)N(O)C(C)(C)C)cc([C@H]2O[C@@H](c3cc(OC)c(OC)c(OC)c3)CS2)cc1OC` (relative stereo), the IC50 against RBL 5-LO turned out to be 250 nM. `C=CCOc1c(NC(=O)N(O)C(C)(C)C)cc([C@@H]2O[C@@H](c3cc(OC)c(OC)c(OC)c3)CS2)cc1OC` (relative stereo) displayed an IC50 on RBL 5-LO of 410 nM. In the case of `COc1cc([C@H]2CC[C@H](c3cc(OC)c(OC)c(OC)c3)O2)cc(OC)c1OC` (relative stereo) [L-652,731, trans-2,5-bis-(3,4,5-trimethoxyphenyl) tetrahydrofuran], the “inhibits the binding of tritiated PAF to PAF receptor sites” value with PAF receptor sites (Hwang et al. 1985) is recorded as “inhibits the binding of tritiated PAF to PAF receptor sites”. Further, in the data set on PAF receptor sites (more potent than cis-L-652,731), the “potency of trans-L-652,731 relative to cis-L-652,731” value is “approximately 1000 times”. In addition, the “effect on the enzyme 5-lipoxygenase” value in the data set on 5-lipoxygenase is recorded as “no effect on the enzyme 5-lipoxygenase”. In addition, in data set [2] (dosage of 30 mg/kg body weight, rat), the “inhibition of PAF-induced rat cutaneous vascular permeability” value was “inhibit PAF-induced rat cutaneous vascular permeability”. For the same compound, the oral activity entry in data set [2] (oral) is “orally active”. For `COc1cc([C@H]2CC[C@H](c3cc(OC)c(OC)c(OC)c3)S2)cc(OC)c1OC` (relative stereo) [L-653,150, trans-2,5-bis-(3,4,5-trimethoxyphenyl)tetrahydrothiophene], the “effect on the enzyme 5-lipoxygenase” value in the data set with 5-lipoxygenase is listed as “moderate inhibitor of 5-lipoxygenase”. Further, in the data set on PAF receptor, the “PAF receptor antagonist activity” value was “potent PAF antagonist”. Consider `COc1cc([C@H]2SC[C@H](c3cc(OC)c(OC)c(OC)c3)S2)cc(NC(=O)N(C)O)c1OC` (relative stereo) [compound 1, Cis and Trans-2-[3,4-dimethoxy-5-(N-hydroxy-N-methylureidyl)phenyl]-4-(3,4,5-trimethoxyphenyl)-1,3-dithiolane], for which the half-inhibitory concentration (IC50) in data set [3] is 259 nM; at 5-LO, 220 nM.

With `COc1cc([C@H]2SC[C@H](c3cc(OC)c(OC)c(OC)c3)S2)cc(NC(=O)N(O)C(C)(C)C)c1OC` (relative stereo) [compound 4, Cis and Trans-2-[3,4-dimethoxy-5-(N-t-butyl-N-hydroxyureidyl)phenyl]-4-(3,4,5-trimethoxyphenyl)-1,3-dithiolane], the results for the IC50 (in data set [3]; on 5-LO) were 798 nM and 320 nM, respectively. Turning to `C=CCOc1c(NC(=O)N(C)O)cc([C@H]2SC[C@H](c3cc(OC)c(OC)c(OC)c3)S2)cc1OC` (relative stereo) [compound 5, Trans-2-[4-allyloxy-3-methoxy-5-(N-hydroxy-N-methylureidyl)phenyl]-4-(3,4,5-trimethoxyphenyl)-1,3-dithiolane], the IC50 amounted to 561 nM in data set [3] and 170 nM on 5-LO. `C=CCOc1c(NC(=O)N(O)C(C)(C)C)cc([C@H]2SC[C@H](c3cc(OC)c(OC)c(OC)c3)S2)cc1OC` (relative stereo) [compound 6, Trans-2-[4-allyloxy-3-methoxy-5-(N-t-butyl-N-hydroxyureidyl)phenyl]-4-(3,4,5-trimethoxyphenyl)-1,3-dithiolane]: the IC50 is 543 nM in data set [3] and 570 nM against 5-LO. For `CCCCN(O)C(=O)Nc1cc(C2SCC(c3cc(OC)c(OC)c(OC)c3)S2)cc(OC)c1OC` (stereo not drawn) [compound 3, Trans-2-[3,4-dimethoxy-5-(N-n-butyl-N-hydroxyureidyl)phenyl]-4-(3,4,5-trimethoxyphenyl)-1,3-dithiolane], the IC50 was 67.8 nM in data set [3] and 240 nM on 5-LO.
